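96-well plates; 48 h exposure; 5 concentrations. Endpoints by linear interpolation between flanking doses. Not reached: highest tested concentration assigned. Definition used: TGI = concentration required for complete inhibition of growth.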
What was measured:
Assay in all cases: growth of human tumour cells (NCI), 48 h
CCRF-CEM leukemia = system: CCRF-CEM leukemia
SF-268 CNS = system: SF-268 CNS
SK-MEL-28 melanoma = system: SK-MEL-28 melanoma
HOP-62 NSCLC = system: HOP-62 NSCLC
A549 NSCLC = system: A549 NSCLC
OVCAR-8 ovarian = system: OVCAR-8 ovarian
HCT-116 colon = system: HCT-116 colon
PC-3 prostate = system: PC-3 prostate
UACC-257 melanoma = system: UACC-257 melanoma
IGROV1 ovarian = system: IGROV1 ovarian
SK-MEL-5 melanoma = system: SK-MEL-5 melanoma
RXF 393 renal = system: RXF 393 renal
ACHN renal = system: ACHN renal
T-47D breast = system: T-47D breast
SR leukemia = system: SR leukemia
M14 melanoma = system: M14 melanoma
NCI/ADR-RES ovarian = system: NCI/ADR-RES ovarian
MALME-3M melanoma = system: MALME-3M melanoma
COLO 205 colon = system: COLO 205 colon
SN12C renal = system: SN12C renal
NCI-H226 lung = system: NCI-H226 lung
BT-549 breast = system: BT-549 breast
A498 renal = system: A498 renal
K-562 leukemia = system: K-562 leukemia
LOX IMVI melanoma = system: LOX IMVI melanoma
UO-31 renal = system: UO-31 renal
KM12 colon = system: KM12 colon
NCI-H460 lung = system: NCI-H460 lung
MOLT-4 leukemia = system: MOLT-4 leukemia
786-0 renal = system: 786-0 renal
HCT-15 colon = system: HCT-15 colon
MDA-MB-231 breast = system: MDA-MB-231 breast
DU-145 prostate = system: DU-145 prostate
MDA-MB-435 = system: MDA-MB-435
SK-MEL-2 melanoma = system: SK-MEL-2 melanoma
NCI-H23 lung = system: NCI-H23 lung
U251 CNS = system: U251 CNS
CAKI-1 renal = system: CAKI-1 renal
SNB-19 CNS = system: SNB-19 CNS
EKVX NSCLC = system: EKVX NSCLC
OVCAR-3 ovarian = system: OVCAR-3 ovarian
SW-620 colon = system: SW-620 colon
UACC-62 melanoma = system: UACC-62 melanoma
MCF7 breast = system: MCF7 breast
NCI-H522 lung = system: NCI-H522 lung
OVCAR-4 ovarian = system: OVCAR-4 ovarian
HOP-92 NSCLC = system: HOP-92 NSCLC
SF-539 CNS = system: SF-539 CNS
SNB-75 CNS = system: SNB-75 CNS
HCC-2998 colon = system: HCC-2998 colon
OVCAR-5 ovarian = system: OVCAR-5 ovarian
MDA-N = system: MDA-N
HL-60(TB) leukemia = system: HL-60(TB) leukemia
HT29 colon = system: HT29 colon
RPMI-8226 leukemia = system: RPMI-8226 leukemia
HS 578T breast = system: HS 578T breast
SF-295 CNS = system: SF-295 CNS
TK-10 renal = system: TK-10 renal
SK-OV-3 ovarian = system: SK-OV-3 ovarian

O=c1oc2cc(N=Cc3ccccc3Cl)ccc2c2ccccc12
TGI (CCRF-CEM leukemia): > 100 µM | TGI (SF-268 CNS): > 100 µM | TGI (SK-MEL-28 melanoma): > 100 µM | TGI (HOP-62 NSCLC): > 100 µM | TGI (A549 NSCLC): > 100 µM | TGI (OVCAR-8 ovarian): > 100 µM | TGI (HCT-116 colon): > 100 µM | TGI (PC-3 prostate): > 100 µM | TGI (UACC-257 melanoma): > 100 µM | TGI (IGROV1 ovarian): > 100 µM | TGI (SK-MEL-5 melanoma): > 100 µM | TGI (RXF 393 renal): > 100 µM | TGI (ACHN renal): > 100 µM | TGI (T-47D breast): > 100 µM | TGI (SR leukemia): > 100 µM | TGI (M14 melanoma): > 100 µM | TGI (NCI/ADR-RES ovarian): > 100 µM | TGI (MALME-3M melanoma): > 100 µM | TGI (COLO 205 colon): > 100 µM | TGI (SN12C renal): > 100 µM | TGI (NCI-H226 lung): > 100 µM | TGI (BT-549 breast): > 100 µM | TGI (A498 renal): > 100 µM | TGI (K-562 leukemia): > 100 µM | TGI (LOX IMVI melanoma): > 100 µM | TGI (UO-31 renal): > 100 µM | TGI (KM12 colon): > 100 µM | TGI (NCI-H460 lung): > 100 µM | TGI (MOLT-4 leukemia): > 100 µM | TGI (786-0 renal): > 100 µM | TGI (HCT-15 colon): > 100 µM | TGI (MDA-MB-231 breast): > 100 µM | TGI (DU-145 prostate): > 100 µM | TGI (MDA-MB-435): > 100 µM | TGI (SK-MEL-2 melanoma): > 100 µM | TGI (NCI-H23 lung): > 100 µM | TGI (U251 CNS): > 100 µM | TGI (CAKI-1 renal): > 100 µM | TGI (SNB-19 CNS): > 100 µM | TGI (EKVX NSCLC): > 100 µM | TGI (OVCAR-3 ovarian): > 100 µM | TGI (SW-620 colon): > 100 µM | TGI (UACC-62 melanoma): > 100 µM | TGI (MCF7 breast): > 100 µM | TGI (NCI-H522 lung): > 100 µM | TGI (OVCAR-4 ovarian): > 100 µM | TGI (HOP-92 NSCLC): > 100 µM | TGI (SF-539 CNS): > 100 µM | TGI (SNB-75 CNS): > 100 µM | TGI (HCC-2998 colon): > 100 µM | TGI (OVCAR-5 ovarian): > 100 µM | TGI (MDA-N): > 100 µM | TGI (HL-60(TB) leukemia): > 100 µM | TGI (HT29 colon): > 100 µM | TGI (RPMI-8226 leukemia): > 100 µM | TGI (HS 578T breast): > 100 µM | TGI (SF-295 CNS): > 100 µM

CC(=O)NC1=C(C)C(=O)c2c(nc3n2CCC3OC(=O)c2ccccc2)C1=N (stereo unspecified)
TGI (CCRF-CEM leukemia): 9.71 µM | TGI (SF-268 CNS): 6.28 µM | TGI (SK-MEL-28 melanoma): 3.45 µM | TGI (HOP-62 NSCLC): 7.28 µM | TGI (A549 NSCLC): 11 µM | TGI (OVCAR-8 ovarian): 8.5 µM | TGI (HCT-116 colon): 21.2 µM | TGI (PC-3 prostate): 6.85 µM | TGI (UACC-257 melanoma): 3.47 µM | TGI (IGROV1 ovarian): 3.58 µM | TGI (SK-MEL-5 melanoma): 2.83 µM | TGI (RXF 393 renal): 2.9 µM | TGI (ACHN renal): 3.13 µM | TGI (T-47D breast): 10.9 µM | TGI (SR leukemia): 7.73 µM | TGI (M14 melanoma): 2.76 µM | TGI (NCI/ADR-RES ovarian): 8.52 µM | TGI (MALME-3M melanoma): 2.45 µM | TGI (COLO 205 colon): 3.27 µM | TGI (SN12C renal): 3.16 µM | TGI (NCI-H226 lung): 13.9 µM | TGI (BT-549 breast): 1.65 µM | TGI (A498 renal): 3.66 µM | TGI (K-562 leukemia): 5.65 µM | TGI (LOX IMVI melanoma): 1.33 µM | TGI (UO-31 renal): 4.34 µM | TGI (KM12 colon): 11.6 µM | TGI (NCI-H460 lung): 3.07 µM | TGI (MOLT-4 leukemia): 5.24 µM | TGI (786-0 renal): 3.65 µM | TGI (HCT-15 colon): 7.47 µM | TGI (MDA-MB-231 breast): 6.45 µM | TGI (DU-145 prostate): 3.44 µM | TGI (MDA-MB-435): 0.319 µM | TGI (SK-MEL-2 melanoma): 4.18 µM | TGI (NCI-H23 lung): 3.83 µM | TGI (TK-10 renal): 9.17 µM | TGI (SK-OV-3 ovarian): 6.59 µM | TGI (U251 CNS): 9.45 µM | TGI (CAKI-1 renal): 4 µM | TGI (SNB-19 CNS): 11.7 µM | TGI (EKVX NSCLC): 6 µM | TGI (OVCAR-3 ovarian): 5.71 µM | TGI (SW-620 colon): 5.17 µM | TGI (UACC-62 melanoma): 1.09 µM | TGI (MCF7 breast): 2.53 µM | TGI (NCI-H522 lung): 7.47 µM | TGI (OVCAR-4 ovarian): 1.2 µM | TGI (HOP-92 NSCLC): 5.47 µM | TGI (SF-539 CNS): 2.56 µM | TGI (SNB-75 CNS): 5.27 µM | TGI (HCC-2998 colon): 3.79 µM | TGI (OVCAR-5 ovarian): 7.36 µM | TGI (MDA-N): 0.347 µM | TGI (HL-60(TB) leukemia): 3.74 µM | TGI (HT29 colon): 3.96 µM | TGI (RPMI-8226 leukemia): 4.34 µM | TGI (HS 578T breast): 5.4 µM | TGI (SF-295 CNS): 6.53 µM

From PubChem BioAssay (NCI)
